This passage reports MIC and zone of inhibition results from ChEMBL document CHEMBL4346717, “1,2,4-Triazole-quinoline/quinolone hybrids as potential anti-bacterial agents” (Eur J Med Chem, 2019).

What all share (assay type): functional
Assay [1] relates to Escherichia coli. The assay is described as follows: Antibacterial activity against Escherichia coli.
Assay [2] concerns Staphylococcus aureus. Nature of the assay: Antibacterial activity against Staphylococcus aureus.
Assay [3] has as its system Staphylococcus aureus. Nature of the assay: Antibacterial activity against Staphylococcus aureus after 3 to 7 days by cup diffusion method.
The test system of assay [4] is Bacillus subtilis. Nature of the assay: Antibacterial activity against Bacillus subtilis after 3 to 7 days by cup diffusion method.
Assay [5] relates to Escherichia coli. The assay is described as follows: Antibacterial activity against Escherichia coli after 3 to 7 days by cup diffusion method.
The test system of assay [6] is Pseudomonas aeruginosa. Nature of the assay: Antibacterial activity against Pseudomonas aeruginosa after 3 to 7 days by cup diffusion method.
In assay [7] the test system is Mycolicibacterium phlei. Nature of the assay: Antibacterial activity against Mycobacterium phlei clinical isolate after 3 to 7 days by cup diffusion method.
For assay [8], the system named is Aggregatibacter actinomycetemcomitans. Nature of the assay: Antibacterial activity against Aggregatibacter actinomycetemcomitans ATCC 29524 after 3 to 7 days by cup diffusion method.
Assay [9] concerns Staphylococcus aureus. The assay is described as follows: Antibacterial activity against Staphylococcus aureus assessed as zone of inhibition at 10 mg/ml after 3 to 7 days by cup diffusion method. Conditions: read-out: IZ.
The subject of assay [10] is Bacillus subtilis. Nature of the assay: Antibacterial activity against Bacillus subtilis assessed as zone of inhibition at 10 mg/ml after 3 to 7 days by cup diffusion method. Conditions: read-out: IZ.
In assay [11] the test system is Escherichia coli. The assay is described as follows: Antibacterial activity against Escherichia coli assessed as zone of inhibition at 10 mg/ml after 3 to 7 days by cup diffusion method. Conditions: read-out: IZ.
The test system of assay [12] is Pseudomonas aeruginosa. Nature of the assay: Antibacterial activity against Pseudomonas aeruginosa assessed as zone of inhibition at 10 mg/ml after 3 to 7 days by cup diffusion method. Conditions: read-out: IZ.
Assay [13] concerns Mycolicibacterium phlei. Nature of the assay: Antibacterial activity against Mycobacterium phlei clinical isolate assessed as zone of inhibition at 10 mg/ml after 3 to 7 days by cup diffusion method. The following applies: read-out: IZ.
Assay [14] deals with Aggregatibacter actinomycetemcomitans. Nature of the assay: Antibacterial activity against Aggregatibacter actinomycetemcomitans ATCC 29524 assessed as zone of inhibition at 10 mg/ml after 3 to 7 days by cup diffusion method. The following applies: read-out: IZ.

≈ marks a conversion by molar mass, not a printed value.

For the compound `O=C(O)c1cn(C2CC2)c2c(cc(F)c3nn(CN4CCCC4)c(=S)n32)c1=O`, the MIC in assay [1] and in assay [2] was 0.125 to 8 µg/mL (≈ 0.31 to 19.8 µM) throughout.
In the case of `CCn1cc(-c2nc(/N=C/c3ccc(Br)cc3)n[nH]2)c(=O)c2ccc(C)nc21`, the MIC result in assay [3], in [4], in assay [5], in [6], in assay [7] and in [8] was “>=0.031 - 32 ug ml-1” in each case. Moreover, the zone of inhibition at 10000 µg/mL in assay [9], in assay [10], in assay [11], in [12], in [13] and in [14] was 20 to 40 mm each time.
On to `CCn1cc(-c2nc(NC(=O)c3ccc(F)cc3)n[nH]2)c(=O)c2ccc(C)nc21`, for which the MIC entry in [3], in assay [4], in assay [5], in assay [6], in assay [7] and in assay [8] was “>=0.031 - 32 ug ml-1” in each case. In addition, the zone of inhibition at 10000 µg/mL in [9], in [10], in [11], in [12], in [13] and in assay [14] was 20 to 40 mm each time.
Regarding `CCN1CCN(Cn2nc3c(F)cc4c(=O)c(C(=O)O)cn(C5CC5)c4n3c2=S)CC1`, the MIC in assay [1] and in assay [2] was 0.125 to 8 µg/mL (≈ 0.28 to 17.9 µM) each time.
With `CCn1cc(-c2nc(NC(=O)c3ccc(OC)cc3)n[nH]2)c(=O)c2ccc(C)nc21`, the MIC result in [3], in assay [4], in assay [5], in assay [6], in [7] and in assay [8] was “>=0.031 - 32 ug ml-1” throughout. Also, the zone of inhibition at 10000 µg/mL in [9], in assay [10], in assay [11], in assay [12], in assay [13] and in [14] was 20 to 40 mm in each case.
For the compound `O=C(O)c1cn(C2CC2)c2c(cc(F)c3nn(CN4CCCCC4)c(=S)n32)c1=O`, the MIC in assay [1] and in assay [2] was 0.125 to 8 µg/mL (≈ 0.299 to 19.2 µM) throughout.
`CCn1cc(-c2nc(/N=C/c3ccc(Cl)cc3)n[nH]2)c(=O)c2ccc(C)nc21`: the MIC entry in assay [3], in assay [4], in assay [5], in assay [6], in assay [7] and in assay [8] was “>=0.031 - 32 ug ml-1” each time. The zone of inhibition at 10000 µg/mL in [9], in assay [10], in assay [11], in assay [12], in assay [13] and in assay [14] was 20 to 40 mm throughout.
Consider `CCn1cc(-c2nc(/N=C/c3ccc(F)cc3)n[nH]2)c(=O)c2ccc(C)nc21`, for which the MIC result in [3], in assay [4], in assay [5], in [6], in assay [7] and in assay [8] was “>=0.031 - 32 ug ml-1” throughout. The zone of inhibition at 10000 µg/mL in assay [9], in assay [10], in assay [11], in [12], in [13] and in assay [14] was 20 to 40 mm each time.
Turning to `CCN(CC)Cn1nc2c(F)cc3c(=O)c(C(=O)O)cn(C4CC4)c3n2c1=S`, the MIC in assay [1] and in [2] was 4 to 32 µg/mL (≈ 9.87 to 78.9 µM) each time.
On to `CN(C)Cn1nc2c(F)cc3c(=O)c(C(=O)O)cn(C4CC4)c3n2c1=S`, for which the MIC in assay [1] and in assay [2] was 4 to 32 µg/mL (≈ 10.6 to 84.8 µM) in each case.
As to `CCn1cc(-c2nc(/N=C/c3ccccc3O)n[nH]2)c(=O)c2ccc(C)nc21`, the MIC entry in assay [4], in assay [5], in [6], in assay [7] and in [8] was “>=0.031 - 32 ug ml-1” each time. Also, the zone of inhibition at 10000 µg/mL in assay [9], in assay [10], in assay [11], in [12], in assay [13] and in [14] was 20 to 40 mm each time.
For `O=C(O)c1cn(C2CC2)c2c(cc(F)c3nn(CN4CCOCC4)c(=S)n32)c1=O`, the MIC in assay [1] and in assay [2] was 0.125 to 8 µg/mL (≈ 0.298 to 19.1 µM) each time.
As for `CCn1cc(-c2nc(NC(=O)c3ccccc3)n[nH]2)c(=O)c2ccc(C)nc21`, the MIC result in assay [3], in assay [4], in [5], in assay [6], in [7] and in assay [8] was “>=0.031 - 32 ug ml-1” each time. For the same compound, the zone of inhibition at 10000 µg/mL in assay [9], in assay [10], in assay [11], in assay [12], in assay [13] and in assay [14] was 20 to 40 mm each time.
For the compound `CCn1cc(-c2nc(NC(=O)CCl)n[nH]2)c(=O)c2ccc(C)nc21`, the MIC result in [3], in assay [4], in assay [5], in [6], in assay [7] and in assay [8] was “>=0.031 - 32 ug ml-1” each time. Moreover, the zone of inhibition at 10000 µg/mL in assay [9], in assay [10], in assay [11], in [12], in assay [13] and in [14] was 20 to 40 mm throughout.
For `CC1CNCCN1Cn1nc2c(F)cc3c(=O)c(C(=O)O)cn(C4CC4)c3n2c1=S` (configuration not stated), the MIC in assay [1] and in assay [2] was 0.125 to 0.5 µg/mL (≈ 0.289 to 1.16 µM) each time.
With `CCn1cc(-c2nc(NC(=O)c3ccc(Cl)cc3)n[nH]2)c(=O)c2ccc(C)nc21`, the MIC entry in [3], in assay [4], in assay [5], in [6], in assay [7] and in assay [8] was “>=0.031 - 32 ug ml-1” each time. Moreover, the zone of inhibition at 10000 µg/mL in assay [9], in [10], in assay [11], in assay [12], in assay [13] and in [14] was 20 to 40 mm each time.
As to `CCn1cc(-c2nc(/N=C/c3ccccc3)n[nH]2)c(=O)c2ccc(C)nc21`, the MIC entry in [3], in assay [4], in [5], in assay [6], in assay [7] and in assay [8] was “>=0.031 - 32 ug ml-1” throughout. Also, the zone of inhibition at 10000 µg/mL in assay [9], in assay [10], in assay [11], in assay [12], in [13] and in assay [14] was 20 to 40 mm each time.
Turning to `CN1CCN(Cn2nc3c(F)cc4c(=O)c(C(=O)O)cn(C5CC5)c4n3c2=S)CC1`, the MIC in assay [1] and in assay [2] was 0.125 to 8 µg/mL (≈ 0.289 to 18.5 µM) in each case.
In the case of `CCn1cc(-c2nc(/N=C/c3ccc(Cl)cc3Cl)n[nH]2)c(=O)c2ccc(C)nc21`, the MIC entry in assay [3], in assay [4], in [5], in assay [6], in [7] and in [8] was “>=0.031 - 32 ug ml-1” throughout. Moreover, the zone of inhibition at 10000 µg/mL in assay [9], in [10], in assay [11], in assay [12], in assay [13] and in assay [14] was 20 to 40 mm throughout.
